We go through 1 compound from patent US20170368148A1, “USES OF A PTHrP ANALOGUE IN REDUCING FRACTURE RISK” (RADIUS HEALTH, INC., priority 2015, published 2017).

Data set [1] deals with postmenopausal women with osteoporosis. Put plainly: ACTIVE trial: adverse events. The following applies: 18 months; abaloparatide 80 μg (n = 822), teriparatide 20 μg (n = 818).
Data set [2] has the same test system. Description: Phase 2 24-week dose-finding trial (48-week extension): BMD by DXA. The class given is in vivo, human. The source says:
Healthy postmenopausal women between the ages of 55 to 85 (based on a 5-year history of amenorrhea and an elevated serum level of FSH) were enrolled in the study if they met one of the following the following definitions of osteoporosis:
Dual X-ray absorptiometry: DXA scans were obtained at each local site and then sent to a central imaging reader (BioClinica Inc. Newton, PA) where they underwent a quality control review and then analyzed according to each manufacturers guidelines. Scans performed during the treatment period on the same instrument used for the baseline scan were acquired. Each study site performed Instrument Quality Control over time (instrument standardization and phantom calibration) that was reviewed by the central reader.
BMD was re-measured at the 48-week visit.

The test system is the same in data set [3]. Put plainly: ACTIVE trial: bone turnover markers (CTX, P1NP). The class given is in vivo, human. Particulars: at 18 months. The procedure: The ACTIVE phase 3 fracture prevention trial was conducted for abaloparatide in postmenopausal women with osteoporosis who were otherwise healthy. The enrolled subjects were treated with 80 micrograms (μg) of abaloparatide, a matching placebo, or the approved daily dose of 20 μg of teriparatide for 18 months. The ACTIVE trial evaluated fracture rates, fracture risks, BMD, and bone turnover biomarkers (e.g., CTX and P1NP) in all patient groups.
BMD and bone turnover biomarkers (CTX and P1NP) were also evaluated in all patient groups to compare the effects of abaloparatide versus teriparatide.

Setting [4] is: 24 weeks, abaloparatide 80 μg, teriparatide 20 μg, valid-completers.
The mark [5] stands for this setting: 48 weeks (extension), 20 μg daily SC.

Marks after values point to notes of the source that are not given here.

On to `CC[C@H](C)[C@H](NC(=O)[C@H](CCC(=O)O)NC(=O)[C@H](CO)NC(=O)[C@@H](NC(=O)[C@@H](N)CO)C(C)C)C(=O)N[C@@H](CCC(N)=O)C(=O)N[C@@H](CC(C)C)C(=O)N[C@@H](CCSC)C(=O)N[C@@H](Cc1cnc[nH]1)C(=O)N[C@@H](CC(N)=O)C(=O)N[C@@H](CC(C)C)C(=O)NCC(=O)N[C@@H](CCCCN)C(=O)N[C@@H](Cc1cnc[nH]1)C(=O)N[C@@H](CC(C)C)C(=O)N[C@@H](CC(N)=O)C(=O)N[C@@H](CO)C(=O)N[C@@H](CCSC)C(=O)N[C@@H](CCC(=O)O)C(=O)N[C@@H](CCCN=C(N)N)C(=O)N[C@H](C(=O)N[C@@H](CCC(=O)O)C(=O)N[C@@H](Cc1c[nH]c2ccccc12)C(=O)N[C@@H](CC(C)C)C(=O)N[C@@H](CCCN=C(N)N)C(=O)N[C@@H](CCCCN)C(=O)N[C@@H](CCCCN)C(=O)N[C@@H](CC(C)C)C(=O)N[C@@H](CCC(N)=O)C(=O)N[C@@H](CC(=O)O)C(=O)N[C@H](C(=O)N[C@@H](Cc1cnc[nH]1)C(=O)N[C@@H](CC(N)=O)C(=O)N[C@@H](Cc1ccccc1)C(=O)O)C(C)C)C(C)C` [teriparatide, hPTH(1-34)], for which, in data set [1], the “AE: Arthralgia” value was determined as 8.6%, the “AE: Back pain” value worked out at 7.2%^‡, the “AE: Constipation” value stood at 4.2% and the “AE: Dizziness” value stood at 7.3%. For the same compound, in data set [1], the “AE: Headache” value is on record as 6.2%, the “AE: Hypercalcemia (serum albumin-corrected calcium value ≧10.7 mg/dL)” value is on record as 6.37%^†, the “AE: Hypercalciuria” value was 12.5%^‡ and the “AE: Hypertension” value was 5.0%. In data set [1], the “AE: Influenza” value worked out at 4.2%, the “AE: Nasopharyngitis” value is recorded as 6.5%, the “AE: Nausea” value is listed as 5.1%^‡ and the “AE: Pain in extremity” value is 5.1%. In data set [1], the “AE: Palpitations” value worked out at 1.6%^‡, the “AE: Upper respiratory tract infection” value worked out at 8.9% and the “AE: Urinary tract infection” value was 5.0%. In data set [2] (24 weeks, 20 μg daily SC), the “Femoral neck BMD increase” value is recorded as 1.1±4.6%, the “Lumbar spine BMD increase (±SD)” value turned out to be 5.5±4.1% and the “Total hip BMD increase” value amounted to 0.5±3.9%. For the same compound, in data set [2] (setting [4]), the “Percentage of subjects with a >3% BMD gain at the lumbar spine” value amounted to 70% and the “Percentage of subjects with a >3% total hip BMD gain” value is 16%. For the same compound, in data set [2] (setting [5]), the “Femoral neck BMD increase” value was 2.2%, the “Lumbar spine BMD increase” value came out at 8.6% and the “Total hip BMD increase” value is 1.3%. Further, in data set [3], the “CTX level compared to placebo” value is recorded as “elevated levels compared to placebo”.
